Key:
glucocorticoid receptor = biological target: T1, glucocorticoid receptor (Homo sapiens, UniProt P04150); experiment: MMTV-LTR renilla luciferase reporter assay in A549 cells (direct transactivation of gene expression); type: cell-based; details: 6 hour at 37° C., read-out: maximal response relative to Dexamethasone (100%)
T1 sequence (P04150 1-777): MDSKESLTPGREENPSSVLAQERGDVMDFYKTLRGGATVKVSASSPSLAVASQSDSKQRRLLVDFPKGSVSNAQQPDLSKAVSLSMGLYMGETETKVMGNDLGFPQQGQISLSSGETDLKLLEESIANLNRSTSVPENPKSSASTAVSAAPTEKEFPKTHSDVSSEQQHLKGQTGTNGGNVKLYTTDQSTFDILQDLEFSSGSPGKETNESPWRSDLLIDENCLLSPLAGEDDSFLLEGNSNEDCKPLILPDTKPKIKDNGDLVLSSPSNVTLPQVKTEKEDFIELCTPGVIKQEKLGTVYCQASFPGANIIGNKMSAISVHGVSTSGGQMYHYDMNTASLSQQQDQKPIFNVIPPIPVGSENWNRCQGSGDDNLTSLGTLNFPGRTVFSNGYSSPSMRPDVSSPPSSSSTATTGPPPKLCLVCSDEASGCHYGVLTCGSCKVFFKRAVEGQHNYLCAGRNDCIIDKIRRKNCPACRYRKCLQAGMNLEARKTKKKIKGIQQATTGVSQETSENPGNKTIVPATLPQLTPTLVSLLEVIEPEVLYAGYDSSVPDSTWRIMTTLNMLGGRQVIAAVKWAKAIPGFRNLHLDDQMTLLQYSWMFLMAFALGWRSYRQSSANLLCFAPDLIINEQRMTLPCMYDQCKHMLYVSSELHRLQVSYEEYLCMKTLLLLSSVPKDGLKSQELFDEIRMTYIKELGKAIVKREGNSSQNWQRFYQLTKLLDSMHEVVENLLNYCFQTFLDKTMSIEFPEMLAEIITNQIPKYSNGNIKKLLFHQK
Experimental: Pharmacological activity may be assessed in functional in vitro assays of glucocorticoid agonist activity.
The functional assay based on that described by R. J. H. Austin et al., Eur Resp J. (2002), 20, 1386-1392 measures the ability of compounds to directly transactivate gene expression. A549 cells stably transfected with a reporter gene containing the glucocorticoid responsive region of the mouse mammary tumour virus long terminal repeat (MMTV-LTR) coupled to renilla luciferase were treated with test compounds at appropriate doses for 6 hour at 37° C. The amount of luciferase activity present within the cells is then determined by measuring the light emitted following incubation with a suitable substrate.

Progesterone Receptor = biological target: T2, Progesterone Receptor (Homo sapiens, UniProt P06401); experiment: Assay for Progesterone Receptor Activity: alkaline phosphatase upregulation in T47D cells; type: cell-based; details: 24 hours at 37° C.
T2 construct: The human breast cancer cell line T47D has been reported to upregulate an endogenous alkaline phosphatase in response to progestins; endogenous in cells; host or cells: T47D cells
T2 sequence (P06401 1-933): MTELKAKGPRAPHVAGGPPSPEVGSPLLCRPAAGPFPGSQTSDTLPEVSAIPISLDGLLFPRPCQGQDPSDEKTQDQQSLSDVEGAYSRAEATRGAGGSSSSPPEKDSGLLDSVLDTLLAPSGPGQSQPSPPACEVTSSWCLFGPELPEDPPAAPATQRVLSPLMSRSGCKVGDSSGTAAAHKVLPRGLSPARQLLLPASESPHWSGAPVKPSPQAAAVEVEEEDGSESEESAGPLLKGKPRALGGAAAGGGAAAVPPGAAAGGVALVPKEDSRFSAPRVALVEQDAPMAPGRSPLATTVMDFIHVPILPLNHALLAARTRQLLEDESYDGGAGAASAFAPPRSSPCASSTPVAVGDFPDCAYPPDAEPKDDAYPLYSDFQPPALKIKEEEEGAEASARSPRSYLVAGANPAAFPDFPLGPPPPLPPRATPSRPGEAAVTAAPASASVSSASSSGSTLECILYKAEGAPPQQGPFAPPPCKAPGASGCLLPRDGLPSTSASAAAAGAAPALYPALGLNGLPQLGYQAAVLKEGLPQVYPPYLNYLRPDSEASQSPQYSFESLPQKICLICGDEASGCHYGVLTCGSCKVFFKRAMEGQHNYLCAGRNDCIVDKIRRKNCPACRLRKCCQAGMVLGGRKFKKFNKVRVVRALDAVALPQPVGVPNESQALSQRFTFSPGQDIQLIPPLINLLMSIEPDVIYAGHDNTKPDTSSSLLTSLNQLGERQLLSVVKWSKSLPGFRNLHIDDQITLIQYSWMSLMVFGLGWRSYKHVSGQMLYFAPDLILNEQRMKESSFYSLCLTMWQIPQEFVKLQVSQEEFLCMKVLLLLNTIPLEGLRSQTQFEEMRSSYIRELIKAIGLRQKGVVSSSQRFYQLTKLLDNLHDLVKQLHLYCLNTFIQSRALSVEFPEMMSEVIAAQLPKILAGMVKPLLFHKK
Experimental: Assay for Progesterone Receptor Activity
The human breast cancer cell line T47D has been reported to upregulate an endogenous alkaline phosphatase in response to progestins (Di Lorenzo et al., Cancer Research (1991) 51, 4470-4475. T47D cells were seeded into 96 well plates at a density of 1×10^5 cells per well and grown overnight at 37° C. Steroids were dissolved in DMSO, added to the cells (final DMSO concentration 0.7%), and incubated for 24 hours at 37° C. The cells were then washed with PBS and lysed with RIPA buffer (1% IGEPAL, 0.5% Na deoxycholate, 0.1% SDS in phosphate buffered saline). Alkaline phosphatase activity was measured spectrophotometrically (405 nm) using p-nitrophenylphosphate (1.5 mg/ml) as a substrate dissolved in 1 M diethanolamine, 0.28M NaCl, 0.5 mM MgCl2. Dose response curves were constructed from which EC50 values were estimated.

For `CC1CC2C3CC(F)C4=CC(=O)C=CC4(C)C3(F)C(O)CC2(C)C1(OC(=O)C1C(C)(C)C1(C)C)C(=O)SCC#N` (stereo not drawn) [Example 1, 6α,9α-Difluoro-11β-hydroxy-16α-methyl-3-oxo-17α-(2,2,3,3-tetramethycyclopropylcarbonyl)oxy-androsta-1,4-diene-17β-carbothioic Acid S-cyanomethyl Ester], which Emax (glucocorticoid receptor) is on record?
The Emax was less than 35%.

Which Emax (glucocorticoid receptor) does the source give for `COc1c(C(=O)OC2(C(=O)SCC#N)C(C)CC3C4CC(F)C5=CC(=O)C=CC5(C)C4(F)C(O)CC32C)csc1Cl` (stereo not drawn) [Example 3, 17α-(5-Chloro-4-methoxy-thiophene-3-carbonyl)oxy-6α,9α-difluoro-11β-hydroxy-16α-methyl-3-oxo-androsta-1,4-diene-17β-carbothioic Acid S-cyanomethyl Ester] here?
The Emax was less than 35%.

What does the source list for `C[C@@H]1C[C@H]2[C@@H]3C[C@H](F)C4=CC(=O)C=C[C@]4(C)[C@@]3(F)[C@@H](O)C[C@]2(C)[C@@]1(OC(=O)C1CCCCC1)C(=O)OCC#N` [Example 5, 17α-(Cyclohexylcarbonyl)oxy-6α,9α-difluoro-11β-hydroxy-16α-methyl-3-oxo-androsta-1,4-diene-17β-carboxylic Acid cyanomethyl Ester]?
EC50 (Progesterone Receptor): > 100 nM; Emax (glucocorticoid receptor): < 35%

How did the Emax (glucocorticoid receptor) turn out when `CC1CC2C3CC(F)C4=CC(=O)C=CC4(C)C3(F)C(O)CC2(C)C1(OC(=O)c1c(F)cccc1F)C(=O)OCC#N` (stereo not drawn) [Example 6, 6α,9α-Difluoro-17α-(2,6-difluorobenzoyl)oxy-11β-hydroxy-16α-methyl-3-oxo-androsta-1,4-diene-17β-carboxylic Acid cyanomethyl Ester] was run?
The Emax was less than 35%.

`COc1ccc(C(=O)OC2(C(=O)OCC#N)C(C)CC3C4CC(F)C5=CC(=O)C=CC5(C)C4(F)C(O)CC32C)cc1` (stereo not drawn) [Example 7, 6α,9α-Difluoro-11β-hydroxy-17α-(4-methoxybenzoyl)oxy-16α-methyl-3-oxo-androsta-1,4-diene-17β-carboxylic Acid cyanomethyl Ester] was tested. Which Emax (glucocorticoid receptor) did it give?
The Emax was less than 35%.

With `CC1CC2C3CC(F)C4=CC(=O)C=CC4(C)C3(F)C(O)CC2(C)C1(OC(=O)CC1CCCC1)C(=O)OCC#N` (stereo not drawn) [Example 9, 17α-(Cyclopentylmethylcarbonyl)oxy-6α,9α-difluoro-11β-hydroxy-16α-methyl-3-oxo-androsta-1,4-diene-17β-carboxylic Acid Cyanomethyl Ester] as the compound, how does the Emax (glucocorticoid receptor) read?
The Emax was less than 35%.

For `CC1CC2C3CC(F)C4=CC(=O)C=CC4(C)C3(F)C(O)CC2(C)C1(OC(=O)CC(C)(C)C)C(=O)OCC#N` (stereo not drawn) [Example 10, 6α,9α-Difluoro-17α-(3,3-dimethylbutanoyl)oxy-11β-hydroxy-16α-methyl-3-oxo-androsta-1,4-diene-17β-carboxylic Acid Cyanomethyl Ester], which Emax (glucocorticoid receptor) is on record?
Its Emax is less than 35%.

`CC(C)c1nc(C(=O)O[C@]2(C(=O)OCC#N)[C@H](C)C[C@H]3[C@@H]4C[C@H](F)C5=CC(=O)C=C[C@]5(C)[C@@]4(F)[C@@H](O)C[C@@]32C)cs1` [Example 11, 6α,9α-Difluoro-11β-hydroxy-17α-(2-isopropyl-1,3-thiazole-4-carbonyl)oxy-16α-methyl-3-oxo-androsta-1,4-diene-17β-carboxylic Acid Cyanomethyl Ester] was tested. Which EC50 (Progesterone Receptor) did it give?
The EC50 was greater than 100 nM.

What about the Emax (glucocorticoid receptor) of the same compound?
The Emax was less than 35%.

For `CC1CC2C3CC(F)C4=CC(=O)C=CC4(C)C3(F)C(O)CC2(C)C1(OC(=O)c1ccc2ccccc2n1)C(=O)OCC#N` (stereo not drawn) [Example 12, 6α,9α-Difluoro-11β-hydroxy-16α-methyl-3-oxo-17α-(quinoline-2-carbonyl)oxy-androsta-1,4-diene-17β-carboxylic Acid Cyanomethyl Ester], which Emax (glucocorticoid receptor) is on record?
The Emax was less than 35%.

How did the Emax (glucocorticoid receptor) turn out when `CC1CC2C3CC(F)C4=CC(=O)C=CC4(C)C3(F)C(O)CC2(C)C1(OC(=O)c1ccc(C(F)(F)F)o1)C(=O)OCC#N` (stereo not drawn) [Example 13, 6α,9α-Difluoro-11β-hydroxy-16α-methyl-3-oxo-17α-(5-trifluoromethyl-furan-2-carbonyl)oxy-androsta-1,4-diene-17β-carboxylic Acid Cyanomethyl Ester] was run?
Its Emax is less than 35%.

Which Emax (glucocorticoid receptor) does the source give for `CC1CC2C3CC(F)C4=CC(=O)C=CC4(C)C3(F)C(O)CC2(C)C1(OC(=O)c1ccc(S(C)(=O)=O)s1)C(=O)OCC#N` (stereo not drawn) [Example 14, 6α,9α-Difluoro-11β-hydroxy-16α-methyl-17α-(5-methylsulphonyl-thiophene-2-carbonyl)oxy-3-oxo-androsta-1,4-diene-17β-carboxylic Acid Cyanomethyl Ester] here?
Its Emax is less than 35%.

For `CCc1cc(C(=O)OC2(C(=O)OCC#N)C(C)CC3C4CC(F)C5=CC(=O)C=CC5(C)C4(F)C(O)CC32C)no1` (stereo not drawn) [Example 16, 6α,9α-Difluoro-17α-(5-ethyl-isoxazole-3-carbonyl)oxy-11β-hydroxy-16α-methyl-3-oxo-androsta-1,4-diene-17β-carboxylic Acid Cyanomethyl Ester], which Emax (glucocorticoid receptor) is on record?
Its Emax is less than 35%.

For `CC1CC2C3CCC4=CC(=O)C=CC4(C)C3(F)C(O)CC2(C)C1(OC(=O)C1C(C)(C)C1(C)C)C(=O)OCC#N` (stereo not drawn) [Example 17, 9α-Fluoro-11β-hydroxy-16β-methyl-3-oxo-17α-(2,2,3,3-tetramethylcyclopropylcarbonyl)oxy-androsta-1,4-diene-17 b-carboxylic Acid cyanomethyl ester], which Emax (glucocorticoid receptor) is on record?
Its Emax is less than 35%.

With `COc1c(C(=O)OC2(C(=O)OCC#N)C(C)CC3C4CC(F)C5=CC(=O)C=CC5(C)C4(F)C(O)CC32C)csc1Cl` (stereo not drawn) [Example 19, 17α-(5-Chloro-4-methoxy-thiophene-3-carbonyl)oxy-6α,9α-difluoro-11β-hydroxy-16α-methyl-3-oxo-androsta-1,4-diene-17β-carboxylic Acid Cyanomethyl Ester] as the compound, how does the Emax (glucocorticoid receptor) read?
The Emax was less than 35%.

`CC1CC2C3CC(F)C4=CC(=O)C=CC4(C)C3(F)C(O)CC2(C)C1(OC(=O)C1C(C)(C)C1(Cl)Cl)C(=O)SCC#N` (stereo not drawn) [Example 21, 17α-(22-Dichloro-3,3-dimethylclopropylcarbonyl)oxy-6α,9α-difluoro-11β-hydroxy-16α-methyl-3-oxo-androsta-1,4-diene-17β-carbothioic acid S-cyanomethyl Ester] was tested. Which Emax (glucocorticoid receptor) did it give?
Its Emax is less than 35%.

`CC1CC2C3CC(F)C4=CC(=O)C=CC4(C)C3(F)C(O)CC2(C)C1(OC(=O)C1CCCCC1)C(=O)SCC#N` (stereo not drawn) [Example 22, 17α-(Cyclohexylcarbonyl)oxy-6α,9α-difluoro-1,1-hydroxy-16α-methyl-3-oxo-androsta-1,4-diene-17β-carbothioic Acid S-cyanomethyl Ester] was tested. Which Emax (glucocorticoid receptor) did it give?
Its Emax is less than 35%.

From US7638508B2, “Glucocorticosteroid compound having anti-inflammatory activity” (Glaxo Group Limited, priority 2003, dated 2009)
